# Test results as given in PubChem BioAssay (NCI).
#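 Test compounds were applied to cells in 96-well plates for 48 hours at 5 doses. TGI is the concentration that stops growth completely.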
# What was measured:
# Test in all cases: NCI anticancer screen, dose series, 48 h
# [1] = system: OVCAR-5 ovarian
# [2] = system: RXF 393 renal
# [3] = system: HCC-2998 colon
# [4] = system: M14 melanoma
# [5] = system: MCF7 breast
# [6] = system: RPMI-8226 leukemia
# [7] = system: SK-MEL-2 melanoma
# [8] = system: OVCAR-8 ovarian
# [9] = system: HOP-62 NSCLC
# [10] = system: NCI-H226 lung
# [11] = system: IGROV1 ovarian
# [12] = system: MALME-3M melanoma
# [13] = system: SNB-75 CNS
# [14] = system: SF-268 CNS
# [15] = system: BT-549 breast
# [16] = system: HCT-15 colon
# [17] = system: NCI-H460 lung
# [18] = system: UO-31 renal
# [19] = system: DU-145 prostate
# [20] = system: KM12 colon
# [21] = system: COLO 205 colon
# [22] = system: HCT-116 colon
# [23] = system: CCRF-CEM leukemia
# [24] = system: UACC-257 melanoma
# [25] = system: SK-MEL-5 melanoma
# [26] = system: ACHN renal
# [27] = system: NCI/ADR-RES ovarian
# [28] = system: U251 CNS
# [29] = system: CAKI-1 renal
# [30] = system: MDA-MB-231 breast
# [31] = system: UACC-62 melanoma
# [32] = system: SK-OV-3 ovarian
# [33] = system: SF-295 CNS
# [34] = system: SF-539 CNS
# [35] = system: NCI-H522 lung
# [36] = system: 786-0 renal
# [37] = system: A498 renal
# [38] = system: MOLT-4 leukemia
# [39] = system: SW-620 colon
# [40] = system: HT29 colon
# [41] = system: SN12C renal
# [42] = system: EKVX NSCLC
# [43] = system: NCI-H23 lung
# [44] = system: TK-10 renal
# [45] = system: SK-MEL-28 melanoma
# [46] = system: PC-3 prostate
# [47] = system: HS 578T breast
# [48] = system: HL-60(TB) leukemia
# [49] = system: MDA-N
# [50] = system: T-47D breast
# [51] = system: OVCAR-4 ovarian
# [52] = system: LOX IMVI melanoma
# [53] = system: OVCAR-3 ovarian
# [54] = system: MDA-MB-435
# [55] = system: A549 NSCLC
# [56] = system: SNB-19 CNS
# [57] = system: HOP-92 NSCLC
# [58] = system: K-562 leukemia
# [59] = system: SR leukemia
structure (smiles),measurement,setting,value
O=S(=O)(O)c1cc(S(=O)(=O)O)c2c(Nc3ccnc4ccccc34)ccc(S(=O)(=O)O)c2c1,TGI,[1],> 100 µM
same,TGI,[2],> 100 µM
same,TGI,[3],> 100 µM
same,TGI,[4],> 100 µM
same,TGI,[5],> 100 µM
same,TGI,[6],> 100 µM
same,TGI,[7],> 100 µM
same,TGI,[8],> 100 µM
same,TGI,[9],> 100 µM
same,TGI,[10],> 100 µM
same,TGI,[11],> 100 µM
same,TGI,[12],> 100 µM
same,TGI,[13],> 100 µM
same,TGI,[14],> 100 µM
same,TGI,[15],> 100 µM
same,TGI,[16],> 100 µM
same,TGI,[17],> 100 µM
same,TGI,[18],> 100 µM
same,TGI,[19],> 100 µM
same,TGI,[20],> 100 µM
same,TGI,[21],> 100 µM
same,TGI,[22],> 100 µM
same,TGI,[23],> 100 µM
same,TGI,[24],> 100 µM
same,TGI,[25],> 100 µM
same,TGI,[26],> 100 µM
same,TGI,[27],> 100 µM
same,TGI,[28],> 100 µM
same,TGI,[29],> 100 µM
same,TGI,[30],> 100 µM
same,TGI,[31],> 100 µM
same,TGI,[32],> 100 µM
same,TGI,[33],> 100 µM
same,TGI,[34],> 100 µM
same,TGI,[35],> 100 µM
same,TGI,[36],> 100 µM
same,TGI,[37],> 100 µM
same,TGI,[38],> 100 µM
same,TGI,[39],> 100 µM
same,TGI,[40],> 100 µM
same,TGI,[41],> 100 µM
same,TGI,[42],> 100 µM
same,TGI,[43],> 100 µM
same,TGI,[44],> 100 µM
same,TGI,[45],> 100 µM
same,TGI,[46],> 100 µM
same,TGI,[47],> 100 µM
same,TGI,[48],> 100 µM
same,TGI,[49],> 100 µM
same,TGI,[50],> 100 µM
same,TGI,[51],> 100 µM
same,TGI,[52],> 100 µM
same,TGI,[53],> 100 µM
same,TGI,[54],> 100 µM
same,TGI,[55],> 100 µM
same,TGI,[56],> 100 µM
CCc1n[nH]c(=O)n1O,TGI,[5],> 100 µM
same,TGI,[7],> 100 µM
same,TGI,[8],> 100 µM
same,TGI,[9],> 100 µM
same,TGI,[10],> 100 µM
same,TGI,[11],> 100 µM
same,TGI,[12],> 100 µM
same,TGI,[57],> 100 µM
same,TGI,[14],> 100 µM
same,TGI,[15],> 100 µM
same,TGI,[18],> 100 µM
same,TGI,[58],> 100 µM
same,TGI,[19],> 100 µM
same,TGI,[20],> 100 µM
same,TGI,[59],> 100 µM
same,TGI,[21],> 100 µM
same,TGI,[22],> 100 µM
same,TGI,[23],> 100 µM
same,TGI,[24],> 100 µM
same,TGI,[25],> 100 µM
same,TGI,[26],> 100 µM
same,TGI,[27],> 100 µM
same,TGI,[28],> 100 µM
same,TGI,[29],> 100 µM
same,TGI,[30],> 100 µM
same,TGI,[31],> 100 µM
same,TGI,[32],> 100 µM
same,TGI,[33],> 100 µM
same,TGI,[34],> 100 µM
same,TGI,[35],> 100 µM
same,TGI,[36],> 100 µM
same,TGI,[37],> 100 µM
same,TGI,[38],> 100 µM
same,TGI,[39],> 100 µM
same,TGI,[40],> 100 µM
same,TGI,[41],> 100 µM
same,TGI,[42],> 100 µM
same,TGI,[43],> 100 µM
same,TGI,[44],> 100 µM
same,TGI,[45],> 100 µM
same,TGI,[47],> 100 µM
same,TGI,[48],> 100 µM
same,TGI,[49],> 100 µM
same,TGI,[50],> 100 µM
same,TGI,[51],> 100 µM
same,TGI,[53],> 100 µM
same,TGI,[54],> 100 µM
same,TGI,[55],> 100 µM
same,TGI,[56],> 100 µM
COc1ccc(C(NS(=O)(=O)c2ccc(C)cc2)c2c(C(CBr)OC)c3ccccc3n2S(=O)(=O)c2ccccc2)cc1OC (stereo not given),TGI,[1],> 100 µM
same,TGI,[2],> 100 µM
same,TGI,[3],> 100 µM
same,TGI,[4],> 100 µM
same,TGI,[5],> 100 µM
same,TGI,[7],> 100 µM
same,TGI,[8],> 100 µM
same,TGI,[9],> 100 µM
same,TGI,[10],> 100 µM
same,TGI,[11],> 100 µM
same,TGI,[12],> 100 µM
same,TGI,[57],> 100 µM
same,TGI,[13],> 100 µM
same,TGI,[14],> 100 µM
same,TGI,[15],> 100 µM
same,TGI,[16],> 100 µM
same,TGI,[17],> 100 µM
same,TGI,[18],> 100 µM
same,TGI,[58],> 100 µM
same,TGI,[19],> 100 µM
same,TGI,[20],> 100 µM
same,TGI,[21],> 100 µM
same,TGI,[22],> 100 µM
same,TGI,[23],> 100 µM
same,TGI,[24],> 100 µM
same,TGI,[25],> 100 µM
same,TGI,[26],> 100 µM
same,TGI,[27],> 100 µM
same,TGI,[28],> 100 µM
same,TGI,[29],> 100 µM
same,TGI,[30],> 100 µM
same,TGI,[31],> 100 µM
same,TGI,[32],> 100 µM
same,TGI,[33],> 100 µM
same,TGI,[34],> 100 µM
same,TGI,[35],> 100 µM
same,TGI,[36],> 100 µM
same,TGI,[37],> 100 µM
same,TGI,[38],> 100 µM
same,TGI,[39],> 100 µM
same,TGI,[40],> 100 µM
same,TGI,[41],> 100 µM
same,TGI,[42],> 100 µM
same,TGI,[43],> 100 µM
same,TGI,[44],> 100 µM
same,TGI,[45],> 100 µM
same,TGI,[46],> 100 µM
same,TGI,[47],> 100 µM
same,TGI,[48],> 100 µM
same,TGI,[49],> 100 µM
same,TGI,[50],> 100 µM
same,TGI,[51],> 100 µM
same,TGI,[52],> 100 µM
same,TGI,[53],> 100 µM
same,TGI,[54],> 100 µM
same,TGI,[55],> 100 µM
same,TGI,[56],> 100 µM
O=C1C(C=NC(=S)c2ccccc2)=C(O)c2ccccc21,TGI,[1],> 100 µM
same,TGI,[2],> 100 µM
same,TGI,[3],> 100 µM
same,TGI,[4],> 100 µM
same,TGI,[5],> 100 µM
same,TGI,[6],67.6 µM
same,TGI,[7],> 100 µM
same,TGI,[8],> 100 µM
same,TGI,[9],> 100 µM
same,TGI,[10],> 100 µM
same,TGI,[11],> 70.5 µM
same,TGI,[57],> 84.8 µM
same,TGI,[13],> 100 µM
same,TGI,[14],> 100 µM
same,TGI,[15],> 94 µM
same,TGI,[16],> 100 µM
same,TGI,[17],> 100 µM
same,TGI,[18],> 88.9 µM
same,TGI,[58],> 100 µM
same,TGI,[19],> 100 µM
same,TGI,[20],> 100 µM
same,TGI,[21],> 100 µM
same,TGI,[22],> 100 µM
same,TGI,[23],53.9 µM
same,TGI,[24],> 100 µM
same,TGI,[25],> 100 µM
same,TGI,[26],> 100 µM
same,TGI,[27],> 100 µM
same,TGI,[28],> 100 µM
same,TGI,[29],> 100 µM
same,TGI,[30],> 100 µM
same,TGI,[31],> 100 µM
same,TGI,[32],85.6 µM
same,TGI,[33],> 100 µM
same,TGI,[34],> 100 µM
same,TGI,[35],50.9 µM
same,TGI,[36],> 66.7 µM
same,TGI,[38],69.3 µM
same,TGI,[39],> 100 µM
same,TGI,[40],> 100 µM
same,TGI,[41],> 100 µM
same,TGI,[42],> 100 µM
same,TGI,[43],> 100 µM
same,TGI,[44],> 100 µM
same,TGI,[45],> 100 µM
same,TGI,[46],> 100 µM
same,TGI,[47],> 100 µM
same,TGI,[48],22 µM
same,TGI,[49],> 100 µM
same,TGI,[50],> 100 µM
same,TGI,[51],> 100 µM
same,TGI,[52],> 67.9 µM
same,TGI,[53],> 100 µM
same,TGI,[54],> 100 µM
same,TGI,[55],> 100 µM
same,TGI,[56],> 100 µM
S=C(Nc1ccccc1)c1ccc(CN2CCCCC2)s1,TGI,[1],35 µM
same,TGI,[3],37.9 µM
same,TGI,[4],32.9 µM
same,TGI,[5],35.7 µM
same,TGI,[6],70.4 µM
same,TGI,[7],43.5 µM
same,TGI,[8],39.7 µM
same,TGI,[9],64.8 µM
same,TGI,[11],48.9 µM
same,TGI,[12],46.6 µM
same,TGI,[14],> 100 µM
same,TGI,[15],61.3 µM
same,TGI,[16],36.2 µM
same,TGI,[17],45.4 µM
same,TGI,[18],30.6 µM
same,TGI,[58],43.6 µM
same,TGI,[19],> 100 µM
same,TGI,[20],36.9 µM
same,TGI,[59],51.5 µM
same,TGI,[21],36.4 µM
same,TGI,[22],34.5 µM
same,TGI,[23],41.3 µM
same,TGI,[24],46.2 µM
same,TGI,[25],31.2 µM
same,TGI,[26],> 100 µM
same,TGI,[27],> 100 µM
same,TGI,[28],44.2 µM
same,TGI,[29],48.8 µM
same,TGI,[31],37.2 µM
same,TGI,[32],36.9 µM
same,TGI,[33],37.5 µM
same,TGI,[34],> 100 µM
same,TGI,[35],35.4 µM
same,TGI,[36],34.2 µM
same,TGI,[37],37.4 µM
same,TGI,[38],71.4 µM
same,TGI,[39],44.7 µM
same,TGI,[40],24.1 µM
same,TGI,[42],> 100 µM
same,TGI,[43],42.8 µM
same,TGI,[45],35.3 µM
same,TGI,[46],> 100 µM
same,TGI,[47],60.5 µM
same,TGI,[48],34.5 µM
same,TGI,[49],33.4 µM
same,TGI,[50],85.3 µM
same,TGI,[51],> 100 µM
same,TGI,[52],32.5 µM
same,TGI,[53],> 100 µM
same,TGI,[54],35.8 µM
same,TGI,[55],98.3 µM
same,TGI,[56],44 µM
